Source: US20240217968A1, “PHARMACEUTICAL COMPOUND” (DUKE STREET BIO LIMITED, priority 2021, published 2024)

Target: T1, recombinant human Flag-tagged PARP7 (amino acids 456-657) (Homo sapiens, UniProt Q7Z3E1)
T1 construct: recombinant human Flag-tagged PARP7 (amino acids 456-657)
T1 sequence (Q7Z3E1 456-657): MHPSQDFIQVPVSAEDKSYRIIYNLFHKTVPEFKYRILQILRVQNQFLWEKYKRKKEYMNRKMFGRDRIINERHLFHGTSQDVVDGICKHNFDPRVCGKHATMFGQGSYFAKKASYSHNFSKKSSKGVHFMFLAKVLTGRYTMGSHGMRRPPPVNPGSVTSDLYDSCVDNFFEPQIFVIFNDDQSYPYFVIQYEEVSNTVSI
Test: PARP7 biochemical DELFIA assay (auto-MARylation)
Details: DELFIA readout, IC50 class
Protocol: A suitable assay may be conducted using 10-30 nM PARP7 (amino acids 456-657), 2 μM biotin-NAD assay solution in 20 mM HEPES (pH 7.5), 100 mM NaCl, 2 mM DTT, 0.1% BSA (w/v), 0.02% Tween (v/v) assay buffer. MARylation may take place for 2-3 h at room temperature and may be detected using a dissociation-enhanced lanthanide fluorescence immunoassay (DELFIA) readout. This assay format has been recently utilised for screening for modulators of PARP7 and other MonoPARP enzymes ([…]. et al. Forced Self-Modification Assays as a Strategy to Screen MonoPARP Enzymes. SLAS Discovery. 25; 241-252, (2020)). A particularly suitable assay is described in the Examples below. Optiplate HB 384-well plates were coated with anti-FLAG antibody, supplied as a 4 mg/ml solution, using a Na2CO3/HCO3 coating buffer at pH 9.6, overnight at 4° C., in order to achieve a final immobilisation per well of 0.3 μg. Wells were then washed 3× in coating wash buffer (PBS/0.05% Tween (v/v)), blocked with 2% BSA (w/v) in coating wash buffer and washed 3 further times prior to assay. For the assay 20 μl of 12.5-37.5 nM recombinant human Flag-tagged PARP7 (amino acids 456-657) was added to each well of the 384-well plate for 30 min at room temperature. 50 nl of test compound in DMSO was added using pintool technology and plates were incubated for a further 30 min at room temperature. 5 μl of 15 μM biotin-NAD^+ assay solution in 20 mM HEPES (pH 7.5), 100 mM NaCl, 2 mM DTT, 0.1% BSA (w/v), 0.02% Tween (v/v) assay buffer was then added and MARylation proceeded for 2-3 h at room temperature prior to the addition of 5 μl of 12 mM NAD^+ quenching solution. After 30 min at room temperature, assay solution was removed and following washing 5 times, 100 μl of a 1:1000 dilution of DELFIA Eu-N1 Streptavidin reagent was added. Plates were then incubated for 30 min at room temperature. Reaction mixture was removed and plates washed 5 times prior to the addition of 25 μl DELFIA enhancement solution. Following incubation for 30 min at room temperature, fluorescence was read on either an Envision or Pherastar FS (Ex337 nm, Em620 nm).

SMILES	IC50
CC(COCC(=O)N1CCN(c2ncc(C(F)(F)F)cn2)CC1)Oc1cccc2c(=O)[nH]ncc12 (racemic) [Compound 33, 5-((1-(2-oxo-2-(4-(5-(trifluoromethyl)pyrimidin-2-yl)piperazin-1-yl)ethoxy)propan-2-yl)oxy)phthalazin-1(2H)-one]	100 to 1000 nM
CC1Cc2c(cn[nH]c2=O)N(CCOCCC(=O)N2CCN(c3ncc(C(F)(F)F)cn3)CC2)C1 (single isomer, unassigned) [Compound 64, 3-methyl-1-(2-(3-oxo-3-(4-(5-(trifluoromethyl)pyrimidin-2-yl)piperazin-1-yl)propoxy)ethyl)-2,3,4,6-tetrahydropyrido[2,3-d]pyridazin-5(1H)-one]	≤ 100 nM
CC1Cc2c(cn[nH]c2=O)N(CCOCCC(=O)N2CCN(c3ncc(C(F)(F)F)cn3)CC2)C1 (single isomer, unassigned) [Compound 65, 3-methyl-1-(2-(3-oxo-3-(4-(5-(trifluoromethyl)pyrimidin-2-yl)piperazin-1-yl)propoxy)ethyl)-2,3,4,6-tetrahydropyrido[2,3-d]pyridazin-5(1H)-one]	≤ 100 nM
CC(COCCC(=O)N1CCN(c2ccc(C#N)cn2)CC1)c1cccc2c(=O)[nH]ncc12 (single isomer, unassigned) [Compound 71]	≤ 100 nM
CC(COCCC(=O)N1CCN(c2ncc(C(F)(F)F)cn2)CC1)c1cccc2c(=O)[nH]ncc12 (single isomer, unassigned) [Compound 72, 5-(1-(3-oxo-3-(4-(5-(trifluoromethyl)pyrimidin-2-yl)piperazin-1-yl)propoxy)propan-2-yl)phthalazin-1(2H)-one]	1000 to 10000 nM
CC(COCCC(=O)N1CCN(c2ncc(C(F)(F)F)cn2)CC1)c1cccc2c(=O)[nH]ncc12 (single isomer, unassigned) [Compound 73, 5-(1-(3-oxo-3-(4-(5-(trifluoromethyl)pyrimidin-2-yl)piperazin-1-yl)propoxy)propan-2-yl)phthalazin-1(2H)-one]	≤ 100 nM
CC1CN(c2ccc(C#N)cn2)CCN1C(=O)CCOCCc1cccc2c(=O)[nH]ncc12 (single isomer, unassigned) [Compound 86]	≤ 100 nM
CC(OCCCC(=O)N1CCN(c2ncc(C(F)(F)F)cn2)CC1)c1cccc2c(=O)[nH]ncc12 (single isomer, unassigned) [Compound 122]	≤ 100 nM
CC(OCCCC(=O)N1CCN(c2ncc(C(F)(F)F)cn2)CC1)c1cc(F)cc2c(=O)[nH]ncc12 (single isomer, unassigned) [Compound 130]	≤ 100 nM
O=C(CCOCCc1cccc2c(=O)[nH]ncc12)N1CCN(c2ncc(C(F)(F)F)cn2)C(CO)C1 (single isomer, unassigned) [Compound 149]	≤ 100 nM
Cc1cn(C(C)COCCC(=O)N2CCN(c3ncc(C(F)(F)F)cn3)CC2)c2cn[nH]c(=O)c12 (single isomer, unassigned) [Compound 151]	≤ 100 nM
CC(OCCCC(=O)N1CCN(c2ncc(C(F)(F)F)cn2)CC1)c1cc(Cl)cc2c(=O)[nH]ncc12 (single isomer, unassigned) [Compound 174, 7-chloro-5-(1-(4-oxo-4-(4-(5-(trifluoromethyl)pyrimidin-2-yl)piperazin-1-yl)butoxy)ethyl)phthalazin-1(2H)-one]	≤ 100 nM
CC(OCCCC(=O)N1CCN(c2ncc(C(F)(F)F)cn2)CC1)c1cc(Cl)cc2c(=O)[nH]ncc12 (single isomer, unassigned) [Compound 175, 7-chloro-5-(1-(4-oxo-4-(4-(5-(trifluoromethyl)pyrimidin-2-yl)piperazin-1-yl)butoxy)ethyl)phthalazin-1(2H)-one]	≤ 100 nM
CC(COCCC(=O)N1CCN(c2ncc(C(F)(F)F)cn2)CC1)n1nc(C(F)(F)F)c2c(=O)[nH]ncc21 (single isomer, unassigned) [Compound 176, 1-(1-(3-oxo-3-(4-(5-(trifluoromethyl)pyrimidin-2-yl)piperazin-1-yl)propoxy)propan-2-yl)-3-(trifluoromethyl)-1,5-dihydro-4H-pyrazolo[3,4-d]pyridazin-4-one]	≤ 100 nM
O=C(CCCOC(c1cccc2c(=O)[nH]ncc12)C(F)(F)F)N1CCN(c2ncc(C(F)(F)F)cn2)CC1 (single isomer, unassigned) [Compound 221, 5-(2,2,2-trifluoro-1-(4-oxo-4-(4-(5-(trifluoromethyl)pyrimidin-2-yl)piperazin-1-yl)butoxy)ethyl)phthalazin-1(2H)-one]	100 to 1000 nM
O=C(CCCOC(c1cccc2c(=O)[nH]ncc12)C(F)(F)F)N1CCN(c2ncc(C(F)(F)F)cn2)CC1 (single isomer, unassigned) [Compound 222, 5-(2,2,2-trifluoro-1-(4-oxo-4-(4-(5-(trifluoromethyl)pyrimidin-2-yl)piperazin-1-yl)butoxy)ethyl)phthalazin-1(2H)-one]	100 to 1000 nM

Other lines, results leading:

IC50	SMILES
≤ 100 nM	CC(COCCC(=O)N1CCN(c2ncc(Cl)cn2)CC1)n1nc(C(F)(F)F)c2c(=O)[nH]ncc21 (single isomer, unassigned) [Compound 185]
≤ 100 nM	CC1CN(C(=O)CCOCCn2nc(C(F)(F)F)c3c(=O)[nH]ncc32)CCN1c1ncc(C(F)(F)F)cn1 (single isomer, unassigned) [Compound 187]
≤ 100 nM	CC1CN(C(=O)CCOCCn2nc(C(F)(F)F)c3c(=O)[nH]ncc32)CCN1c1ncc(C(F)(F)F)cn1 (single isomer, unassigned) [Compound 188]
≤ 100 nM	CC(COCCC(=O)N1CCN(c2ccc(C#N)cn2)CC1)n1ncc2c(=O)[nH]ncc21 (single isomer, unassigned) [Compound 189]
100 to 1000 nM	CC(COCCC(=O)N1CCN(c2ccc(C#N)cn2)CC1)n1ncc2c(=O)[nH]ncc21 (single isomer, unassigned) [Compound 190]
≤ 100 nM	CCC(OCCCC(=O)N1CCN(c2ncc(C(F)(F)F)cn2)CC1)c1cccc2c(=O)[nH]ncc12 (single isomer, unassigned) [Compound 210]
≤ 100 nM	CC(COCCC(=O)N1CCN(c2ncc(C(F)(F)F)cn2)CC1)n1cc(C(F)(F)F)c2c(=O)[nH]ncc21 (single isomer, unassigned) [Compound 223, 1-(1-(3-oxo-3-(4-(5-(trifluoromethyl)pyrimidin-2-yl)piperazin-1-yl)propoxy)propan-2-yl)-3-(trifluoromethyl)-1,5-dihydro-4H-pyrrolo[2,3-d]pyridazin-4-one]
≤ 100 nM	CC(COCCC(=O)N1CCN(c2ncc(C(F)(F)F)cn2)CC1)n1cc(C(F)(F)F)c2c(=O)[nH]ncc21 (single isomer, unassigned) [Compound 224, 1-(1-(3-oxo-3-(4-(5-(trifluoromethyl)pyrimidin-2-yl)piperazin-1-yl)propoxy)propan-2-yl)-3-(trifluoromethyl)-1,5-dihydro-4H-pyrrolo[2,3-d]pyridazin-4-one]
≤ 100 nM	Cc1nn(C(C)COCCC(=O)N2CCN(c3ncc(C(F)(F)F)cn3)CC2)c2cn[nH]c(=O)c12 (single isomer, unassigned) [Compound 245]
≤ 100 nM	CC(COCCC(=O)N1CCN(c2ncc(F)cn2)CC1)n1nc(C(F)(F)F)c2c(=O)[nH]ncc21 (single isomer, unassigned) [Compound 248, 1-(1-(3-(4-(5-fluoropyrimidin-2-yl)piperazin-1-yl)-3-oxopropoxy)propan-2-yl)-3-(trifluoromethyl)-1,5-dihydro-4H-pyrazolo[3,4-d]pyridazin-4-one]
≤ 100 nM	CC(COCCC(=O)N1CCN(c2ncc(F)cn2)CC1)n1nc(C(F)(F)F)c2c(=O)[nH]ncc21 (single isomer, unassigned) [Compound 249, 1-(1-(3-(4-(5-fluoropyrimidin-2-yl)piperazin-1-yl)-3-oxopropoxy)propan-2-yl)-3-(trifluoromethyl)-1,5-dihydro-4H-pyrazolo[3,4-d]pyridazin-4-one]
1000 to 10000 nM	CC(COCCC(=O)N1CCN(c2nc(C#N)cs2)CC1)n1nc(C(F)(F)F)c2c(=O)[nH]ncc21 (single isomer, unassigned) [Compound 250]
≤ 100 nM	CC(COCCC(=O)N1CCN(c2ccc(OC(F)(F)F)cn2)CC1)n1nc(C(F)(F)F)c2c(=O)[nH]ncc21 (single isomer, unassigned) [Compound 253]
≤ 100 nM	CC(COCCC(=O)N1CCN(c2ccc(OC(F)(F)F)cn2)CC1)n1nc(C(F)(F)F)c2c(=O)[nH]ncc21 (single isomer, unassigned) [Compound 254]
